Results taken from patent publication US12492186B2, “Bicyclic heterocyclic compounds useful as IRAK4 inhibitors” (BRISTOL-MYERS SQUIBB COMPANY, priority 2019, dated 2025).
pEC50, pIC50: −log10 of the molar value.

Tests used:
[1] = target: IRAK4 (Homo sapiens (Human), UniProt Q9NWZ3); experiment: IRAK4 Inhibition Assay; assay type: biochemical; settings: ATP 500 μM; IRAK4 0.6 nM; 60 min room temperature; Caliper LABCHIP 3000
[2] = test system: Human whole blood; experiment: IRAK4 Whole Blood Assay (IL-6 levels after stimulation with TLR2 agonist lipoteichoic acid); assay type: cell-based; settings: 10 μg/mL lipoteichoic acid, 5 hours
Description: Human whole blood containing the anti-coagulant ACD-A was plated in 384-well plate (25 μL/well) and incubated with compounds for 60 minutes at 37° C. in a 5% CO2 incubator. The blood was stimulated with a TLR2 agonist, 10 μg/mL final concentration of lipoteichoic acid (Invivogen, San Diego, CA) in 25 μL RPMI (Gibco) for 5 hours in a 5% CO2 incubator. At the end of the incubation, plates were centrifuged at 2300 rpm for 5 minutes. Supernatants were harvested and analyzed for IL-6 levels by Flow Cytometry beads assay (BD Biosciences, San Jose, CA).

Chain of IRAK4 (Q9NWZ3 whole entry, species assumed): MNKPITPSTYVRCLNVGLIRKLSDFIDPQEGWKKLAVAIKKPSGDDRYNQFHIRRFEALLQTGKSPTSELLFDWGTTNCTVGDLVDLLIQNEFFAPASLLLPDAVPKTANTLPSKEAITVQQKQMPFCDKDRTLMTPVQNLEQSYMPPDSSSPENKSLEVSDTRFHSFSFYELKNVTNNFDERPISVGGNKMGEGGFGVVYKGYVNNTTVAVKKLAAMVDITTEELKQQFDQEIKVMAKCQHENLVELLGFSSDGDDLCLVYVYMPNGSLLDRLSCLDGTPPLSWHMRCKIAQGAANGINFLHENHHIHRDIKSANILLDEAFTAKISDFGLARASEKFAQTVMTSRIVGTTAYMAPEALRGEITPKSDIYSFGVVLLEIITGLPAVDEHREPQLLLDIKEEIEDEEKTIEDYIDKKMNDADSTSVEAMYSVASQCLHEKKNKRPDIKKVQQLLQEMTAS

`CC(=O)N[C@H]1CC[C@H](NC(=O)c2cnc3ccc(-c4cn[nH]c4)nc3c2NC(C)C)CC1` [Example 155, N-((1r,4r)-4-acetamidocyclohexyl)-4-(isopropylamino)-6-(1H-pyrazol-4-yl)-1,5-naphthyridine-3-carboxamide] gave a pIC50 [1] of 8.48 and a pEC50 [2] of 6.30.
Molecule `CC(C)Nc1c(C(=O)NCC2CCS(=O)(=O)CC2)cnc2ccc(-c3cn[nH]c3)cc12` [Example 107, N-((1,1-dioxidotetrahydro-2H-thiopyran-4-yl)methyl)-4-(isopropylamino)-6-(1H-pyrazol-4-yl)quinoline-3-carboxamide] has a pIC50 [1] of 7.68 and a pEC50 [2] of 5.42.
Molecule `CC(C)Nc1c(C(=O)NCCCc2csc(N)n2)cnc2ccc(-c3cn[nH]c3)cc12` [Example 113, N-(3-(2-aminothiazol-4-yl)propyl)-4-(isopropylamino)-6-(1H-pyrazol-4-yl)quinoline-3-carboxamide] has a pIC50 [1] of 8.24 and a pEC50 [2] of 5.79.
`CC(C)CCNC(=O)c1cnc2ccc(-c3cn[nH]c3)nc2c1NC(C)C` [Example 139, N-isopentyl-4-(isopropylamino)-6-(1H-pyrazol-4-yl)-1,5-naphthyridine-3-carboxamide] gave a pIC50 [1] of 8.57 and a pEC50 [2] of 6.57.
`CC(C)Nc1c(C(=O)NCCCNS(C)(=O)=O)cnc2ccc(-c3cn[nH]c3)cc12` [Example 95, 4-(isopropylamino)-N-(3-(methylsulfonamido)propyl)-6-(1H-pyrazol-4-yl)quinoline-3-carboxamide] gave a pIC50 [1] of 7.98 and a pEC50 [2] of 5.49.
`CC(C)Nc1c(C(=O)NCCN2CCOCC2)cnc2ccc(-c3cn[nH]c3)cc12` [Example 44, 4-(isopropylamino)-N-(2-morpholinoethyl)-6-(1H-pyrazol-4-yl)quinoline-3-carboxamide] showed a pIC50 [1] of 8.01 and a pEC50 [2] of 5.92.
With `CC(C)Nc1c(C(=O)NCCC(F)F)cnc2ccc(-c3cn[nH]c3)cc12` [Example 45, N-(3,3-difluoropropyl)-4-(isopropylamino)-6-(1H-pyrazol-4-yl)quinoline-3-carboxamide] the pIC50 [1] was 8.04 and the pEC50 [2] was 6.46.
Work on `COC(=O)N[C@H]1C[C@H](NC(=O)c2cnc3ccc(-c4cn[nH]c4)cc3c2NC(C)C)C1` [Example 47, methyl ((1r,3r)-3-(4-(isopropylamino)-6-(1H-pyrazol-4-yl)quinoline-3-carboxamido)cyclobutyl)carbamate] yielded a pIC50 [1] of 8.04 and a pEC50 [2] of 6.06.
Molecule `CC(=O)N1CCC(c2cc(-c3cnc4ccc(-c5cn[nH]c5)cc4c3NC(C)C)on2)CC1` [Example 127, 1-(4-(5-(4-(isopropylamino)-6-(1H-pyrazol-4-yl)quinolin-3-yl)isoxazol-3-yl)piperidin-1-yl)ethan-1-one] has a pIC50 [1] of 8.17 and a pEC50 [2] of 5.93.
`O=C(NCCc1cccnc1)c1cnc2ccc(-c3cn[nH]c3)cc2c1NC1CC1` [Example 115, 4-(cyclopropylamino)-6-(1H-pyrazol-4-yl)-N-(2-(pyridin-3-yl)ethyl)quinoline-3-carboxamide] was tested, and the pIC50 [1] was 8.36 and the pEC50 [2] was 5.96.
Work on `CC(C)Nc1c(C(=O)NC2CCN(C(=O)C3CC3)CC2)cnc2ccc(-c3cn[nH]c3)cc12` [Example 81, N-(1-(cyclopropanecarbonyl)piperidin-4-yl)-4-(isopropylamino)-6-(1H-pyrazol-4-yl)quinoline-3-carboxamide] yielded a pIC50 [1] of 7.93 and a pEC50 [2] of 5.85.
For `CC(C)Nc1c(C(=O)NC[C@@H](F)C(C)(C)O)cnc2ccc(-c3cn[nH]c3)cc12` [Example 1, (R)—N-(2-fluoro-3-hydroxy-3-methylbutyl)-4-(isopropylamino)-6-(1H-pyrazol-4-yl) quinoline-3-carboxamide], the pIC50 [1] was 8.59 and the pEC50 [2] was 6.30.
Molecule `Cc1cc2ncc(C(=O)NCCC(C)(C)O)c(NC(C)C)c2cc1-c1cn[nH]c1` [Example 59, N-(3-hydroxy-3-methylbutyl)-4-(isopropylamino)-7-methyl-6-(1H-pyrazol-4-yl)quinoline-3-carboxamide] has a pIC50 [1] of 7.80 and a pEC50 [2] of 5.32.
In the case of `CC(C)Nc1c(C(=O)NCCC2CCCN2)cnc2ccc(-c3cn[nH]c3)cc12` (stereo not shown) [Example 96, 4-(isopropylamino)-6-(1H-pyrazol-4-yl)-N-(2-(pyrrolidin-2-yl)ethyl)quinoline-3-carboxamide], the pIC50 [1] was 7.94 and the pEC50 [2] was 5.89.
`CC1(Nc2c(C(=O)NCCc3cccnc3)cnc3ccc(-c4cn[nH]c4)cc23)CC1` [Example 122, 4-((1-methylcyclopropyl)amino)-6-(1H-pyrazol-4-yl)-N-(2-(pyridin-3-yl)ethyl)quinoline-3-carboxamide] was tested, and the pIC50 [1] was 8.60 and the pEC50 [2] was 5.90.
Work on `CC(C)Nc1c(C(=O)NCCCc2ccncc2)cnc2ccc(-c3cn[nH]c3)cc12` [Example 114, 4-(isopropylamino)-6-(1H-pyrazol-4-yl)-N-(3-(pyridin-4-yl)propyl)quinoline-3-carboxamide] yielded a pIC50 [1] of 8.04 and a pEC50 [2] of 5.76.
`CC(O)CCNC(=O)c1cnc2ccc(-c3cn[nH]c3)nc2c1NC(C)C` (stereo not shown) [Example 140, N-(3-hydroxybutyl)-4-(isopropylamino)-6-(1H-pyrazol-4-yl)-1,5-naphthyridine-3-carboxamide] gave a pIC50 [1] of 8.32 and a pEC50 [2] of 6.86.
`CC1(Nc2c(C(=O)NCCN3CCS(=O)(=O)CC3)cnc3ccc(-c4cn[nH]c4)cc23)CC1` [Example 119, N-(2-(1,1-dioxidothiomorpholino)ethyl)-4-((1-methylcyclopropyl)amino)-6-(1H-pyrazol-4-yl)quinoline-3-carboxamide] gave a pIC50 [1] of 8.49 and a pEC50 [2] of 5.93.
In the case of `CC(=O)N[C@H]1C[C@H](NC(=O)c2cnc3ccc(-c4cn[nH]c4)cc3c2NC(C)C)C1` [Example 46, N-((1r,3r)-3-acetamidocyclobutyl)-4-(isopropylamino)-6-(1H-pyrazol-4-yl)quinoline-3-carboxamide], the pIC50 [1] was 8.18 and the pEC50 [2] was 5.68.
`CC(=O)N1CC(n2cc(-c3cnc4ccc(-c5cn[nH]c5)cc4c3NC(C)C)nn2)C1` [Example 132, 1-(3-(4-(4-(isopropylamino)-6-(1H-pyrazol-4-yl)quinolin-3-yl)-1H-1,2,3-triazol-1-yl)azetidin-1-yl)ethan-1-one] was tested, and the pIC50 [1] was 8.54 and the pEC50 [2] was 6.10.
With `CC(C)Nc1c(C(=O)NCCC2(O)CC(F)(F)C2)cnc2ccc(-c3cn[nH]c3)cc12` [Example 42, N-(2-(3,3-difluoro-1-hydroxycyclobutyl)ethyl)-4-(isopropylamino)-6-(1H-pyrazol-4-yl)quinoline-3-carboxamide] the pIC50 [1] was 8.60 and the pEC50 [2] was 6.40.
`CC(C)Nc1c(-c2cn(CC3CC3)nn2)cnc2ccc(-c3cn[nH]c3)cc12` [Example 130, 3-(1-(cyclopropylmethyl)-1H-1,2,3-triazol-4-yl)-N-isopropyl-6-(1H-pyrazol-4-yl) quinolin-4-amine] showed a pIC50 [1] of 8.22 and a pEC50 [2] of 5.72.
With `CC(C)Nc1c(C(=O)NCCN2CCOCC2)cnc2ccc(-c3cn[nH]c3)nc12` [Example 144, 4-(isopropylamino)-N-(2-morpholinoethyl)-6-(1H-pyrazol-4-yl)-1,5-naphthyridine-3-carboxamide] the pIC50 [1] was 8.40 and the pEC50 [2] was 6.55.
`CC(C)Nc1c(-c2cn(C3CN(CC(F)F)C3)nn2)cnc2ccc(-c3cn[nH]c3)cc12` [Example 134, 3-(1-(1-(2,2-difluoroethyl)azetidin-3-yl)-1H-1,2,3-triazol-4-yl)-N-isopropyl-6-(1H-pyrazol-4-yl)quinolin-4-amine] gave a pIC50 [1] of 8.20 and a pEC50 [2] of 6.01.
Work on `CC(C)Nc1c(C(=O)NCC2CCS(=O)(=O)C2)cnc2ccc(-c3cn[nH]c3)cc12` (stereo not shown) [Example 87, N-((1,1-dioxidotetrahydrothiophen-3-yl)methyl)-4-(isopropylamino)-6-(1H-pyrazol-4-yl)quinoline-3-carboxamide] yielded a pIC50 [1] of 8.17 and a pEC50 [2] of 6.34.
`CC(C)Nc1c(C(=O)NCCC(C)(C)O)cnc2ccc(-c3cn[nH]c3)nc12` [Example 138, N-(3-hydroxy-3-methylbutyl)-4-(isopropylamino)-6-(1H-pyrazol-4-yl)-1,5-naphthyridine-3-carboxamide] gave a pIC50 [1] of 8.57 and a pEC50 [2] of 7.24.
`CC(C)Nc1c(C(=O)NC2CCN(Cc3ccc(F)cc3)CC2)cnc2ccc(-c3cn[nH]c3)cc12` [Example 76, N-(1-(4-fluorobenzyl)piperidin-4-yl)-4-(isopropylamino)-6-(1H-pyrazol-4-yl)quinoline-3-carboxamide] showed a pIC50 [1] of 7.91 and a pEC50 [2] of 5.77.
With `CC1(Nc2c(C(=O)NC[C@@H](F)C(C)(C)O)cnc3ccc(-c4cn[nH]c4)cc23)CC1` [Example 121, (R)—N-(2-fluoro-3-hydroxy-3-methylbutyl)-4-((1-methylcyclopropyl)amino)-6-(1H-pyrazol-4-yl)quinoline-3-carboxamide] the pIC50 [1] was 8.57 and the pEC50 [2] was 6.16.
For `CCOCCNC(=O)c1cnc2ccc(-c3cn[nH]c3)cc2c1NC(C)C` [Example 10, N-(2-ethoxyethyl)-4-(isopropylamino)-6-(1H-pyrazol-4-yl)quinoline-3-carboxamide], the pIC50 [1] was 7.82 and the pEC50 [2] was 5.65.
With `CC(C)(O)[C@H](F)CNC(=O)c1cnc2ccc(-c3cn[nH]c3)cc2c1NC1COC1` [Example 34, (R)—N-(2-fluoro-3-hydroxy-3-methylbutyl)-4-(oxetan-3-ylamino)-6-(1H-pyrazol-4-yl)quinoline-3-carboxamide] the pIC50 [1] was 8.01 and the pEC50 [2] was 6.26.
`CC(C)Nc1c(C(=O)NC2CCN(S(=O)(=O)c3cccnc3)CC2)cnc2ccc(-c3cn[nH]c3)cc12` [Example 84, 4-(isopropylamino)-6-(1H-pyrazol-4-yl)-N-(1-(pyridin-3-ylsulfonyl)piperidin-4-yl)quinoline-3-carboxamide] gave a pIC50 [1] of 7.77 and a pEC50 [2] of 5.93.
With `CC(C)Nc1c(C(=O)NC[C@@H](F)C(C)(C)O)cnc2ccc(-c3cn[nH]c3)nc12` [Example 141, (R)—N-(2-fluoro-3-hydroxy-3-methylbutyl)-4-(isopropylamino)-6-(1H-pyrazol-4-yl)-1,5-naphthyridine-3-carboxamide] the pIC50 [1] was 8.85 and the pEC50 [2] was 7.40.
